≈ marks a conversion by molar mass, not a printed value.
Assays:
[1] = Aqueous solubility of dasatinib (internal experimentation); type: physicochemical; conditions: aqueous medium
Source text: Dasatinib in crystalline forms is categorized as a Biopharmaceutical Classification System (“BCS”) Class II (low solubility/high permeability) compound. […] A preparation of dasatinib in a form that is intended to enhance its solubility could increase its bioavailability. One approach for enhancing solubility is to produce an amorphous solid dispersion.

[2] = crystalline forms; low solubility/high permeability; cited from earlier work
[3] = Comparative Example; promptly after spray drying and drying
Protocol: (§1) Each of the resulting ASDs was placed on stability under accelerated conditions at 40° C./75% RH. The ASDs were assessed at t=0 (i.e., after the secondary drying step), 2 weeks, 1 month, 2 months, 3 months, and 6 months for appearance, amorphicity, glass transition temperature, water content, and assay/total impurities.
Amorphicity (i.e., the lack of crystallinity) for the ASDs was assessed by XRD. Diffraction patterns were obtained using a Rigaku MiniFlex 600. The X-ray source was a long anode Cu Kα. Samples were prepared by placing a small amount of ASD powder on a Rigaku zero-background sample holder with a 0.1 mm indent. A glass slide was then used to firmly pack the powder and ensure the surface of the sample was level with the edge of the sample holder.
Rigaku Data Analysis Software PDXL 2.4.2.0 was used to determine crystallinity. Briefly, a linear background was obtained by connecting the beginning and end of each diffractogram. Peaks were then fitted to split pseudo-Voigt shape by the Lorentzian function. Generally, narrow peaks with full width at half maximum (FWHM) less than 1° were assigned as crystalline phase. If no crystalline phase was detected, the sample was deemed to be amorphous.

[4] = Comparative Example; promptly after preparation
Protocol: as §1
In general, about 5-10 mg of ASD powder was loaded in a TA Tzero low-mass aluminum pan and sealed with a Tzero lid.

Row | Structure (SMILES) | solubility ([1]; pH 2, simulated gastric fluid) [µg/mL] | solubility ([1]; pH 6.2, aqueous buffer) [µg/mL] | Biopharmaceutical Classification System (BCS) class [2] | XRD crystallinity [3] | glass transition temperature (Tg) [4] [°C]
1 | Cc1nc(Nc2ncc(C(=O)Nc3c(C)cccc3Cl)s2)cc(N2CCN(CCO)CC2)n1 [Dasatinib, N-(2-chloro-6-methylphenyl)-2-[[6-[4-(2-hydroxyethyl)-1-piperazinyl]-2-methyl-4-pyrimidinyl]amino]-5-thiazolecarboxamide] | ~1400 (≈ 2870 µM) | < 1 | Class II |  | 
2 | Cc1nc(Nc2ncc(C(=O)Nc3c(C)cccc3Cl)s2)cc(N2CCN(CCO)CC2)n1 [spray-dried material of 100% dasatinib] |  |  |  | exhibited crystalline character | 125.61
